Test results from patent publication EP1892243A1, “Polymorphic forms of ziprasidone sulphate salts” (KRKA, tovarna zdravil, d.d., Novo mesto, priority 2006, dated 2008).
Counter-ions that a name gives are not always drawn.

Legend:
Water-sorption analysis = type: physicochemical; conditions: for release of crystal water: at 0 % RH, nitrogen flow 200 ml/min; for release of crystal water / water sorption started at: 25°C; for water sorption started at: cycles from 0 % RH to 95 % RH
Method: An amount of 20 mg of zipasidone hydrogensulphate dihydrate was exposed to a water-sorption analysis (Surface Measurement Systems Ltd., London, UK; two complete 11-step circles from 0 % RH to 95 % RH at the temperature 25°C and nitrogen flow rate 200 ml/min; minimal retention time at the step when dm/dt < 0.002% is 10 minutes and maximal 360 minutes) and compared to the same test of Ziprasidone hydrochloride monohydrate.

[1] = Particle size by laser light scattering; type: physicochemical; conditions: drug substance used in the compositions of Example 12
Method: The average particle size is determined by laser light scattering using a Malvern-Mastersizer Apparatus MS 2000. The particles to be subjected to the particle size measurement are first suspended in isoparafinic oil (Isopar®) and then subjected to a size determination in a Malvern Mastersizer MS 2000 instrument. Usually, 100-800 mg of substance is dispersed in 5-8 ml of […]. According to manufacturer's information, the Malvern Mastersizers allow for a measurement of particle size distributions in the range of 20 nm to 2000 µm, with a precision of better than 0.5%. Particle sizes are determined by measuring the angular distribution of laser light scattered by a homogeneous suspension of particles. The size distribution is determined from the light scattering data using the theory of light scattering developed by Gustav Mie.

[2] = 2 weeks

| Compound | release of crystal water (Water-sorption analysis) | water sorption started at (Water-sorption analysis) | stability to hydratation (Water-sorption analysis; compared with Ziprasidone hydrochloride salt) | Particle size [1] | HPLC purity of Ziprasidone after two-week stability test [2] |
| --- | --- | --- | --- | --- | --- |
| O=C1Cc2cc(CCN3CCN(c4nsc5ccccc45)CC3)c(Cl)cc2N1 [Ziprasidone hydrochloride monohydrate, reference compound] | release crystal water | 30 % RH |  |  |  |
| O.O.O=C1Cc2cc(CCN3CCN(c4nsc5ccccc45)CC3)c(Cl)cc2N1.O=S(=O)(O)O [Ziprasidone hydrogensulphate dihydrate, 5-[2-[4-(1,2-benzisothiazol-3-yl)-1-piperazinyl]ethyl]-6-chloro-1,3-dihydro-2H-indol-2-one hydrogensulphate dihydrate] | does not release crystal water | 50 % RH | more stable to hydratation | 26 µm | 99.7% |
